Source: EP1323432A1, “Complexes of cyclodextrins with potassium ion homeostasis regulators” (priority 2001, dated 2003)

Assays:
venous plasma K^+ [1] = assay: Venous plasma K^+ levels before and after treadmill exercise; type: in vivo, Wistar Kioto male rats; conditions: 5 animals per group; up to 100 minutes after the end of the effort; complex 1 180 µg/kg/day, noncomplexed 20 µg/kg/day
Wistar Kioto male rats = assay: Treadmill exercise: average duration of effort and recovery times after effort; type: in vivo; conditions: for average duration of the effort on the treadmill: after day 14 of treatment, oral by endogastric tube for 30 days; for average duration of the effort on the treadmill / Average recovery times after effort: versus placebo; for effort lasting (duration of the repeated effort on a treadmill) / rats able to sustain the effort on a treadmill already 30 minutes after suspending their exercise / time after which the remaining rats were able to repeat the effort: day 30; for effort lasting (duration of the repeated effort on a treadmill): effort repeated 30 minutes after end of exercise; for effort lasting (duration of the repeated effort on a treadmill) / time after which the remaining rats were able to repeat the effort: same doses as E4; for rats able to sustain the effort on a treadmill already 30 minutes after suspending their exercise: oral, complex 1 360 µg/kg/day, 0.4 mg/kg/day (complex 2 3 mg/kg/day), 6 mg/kg/day (complex 3 50 mg/kg/day); for time after which the remaining rats were able to repeat the effort: rats not able to repeat at 30 minutes; for Average recovery times after effort: day 30 of treatment
Method: (§1) Wistar Kioto male rats weighing 350 g were divided into nine groups of eight animals each (numbered 1 to 8 for each test group) and were treated with amounts of complex 1 equal to 20 µg/kg/day or 40 µg/kg/day of noncomplexed active ingredient, of complex 2 equal to 0.4 mg/kg/day of noncomplexed active ingredient and of complex 3 equal to 6 mg/kg/day of noncomplexed active ingredient, orally with an endogastric tube for 30 days, during which the animals were exercised and tested. The tested doses were the minimum ones required to restore blood K^+ levels after exercise. • Placebo group treated with physiological solution enriched with hydroxypropyl-β-cyclodextrin; • Group treated with 20 µg/kg/day of 6-[1-piperidinyl]pyrimidine-2,4-diamine-3-oxide; • Group treated with […]/day of 6-[1-piperidinyl]pyrimidine-2,4-diamine-3-oxide; • Group treated with 180 µg/kg/day of complex 1; • Group treated with 360 µg/kg/day of complex 1; • Group treated with 0.4 mg/kg/day of [±]-N-cyano-N-4-pyridinyl-N-[1,2,2-trimethylpropyl]-guanidine; • Group treated with 3 mg/kg/day of complex 2; • Group treated with 6 mg/kg/day of N-[5-sulfamoyl-1,3,4-thiadiazol-2-yl]acetamide; • Group treated with 50 mg/kg/day of complex 3.
(§2) Levels of venous plasma K^+ taken from the femoral vein before and after exercise were also measured once a week per rat in animals anesthetized with chloral hydrate at a dose of 0.5 g/kg.
Each test group was subjected to daily trials at an initial speed of 15 m/min. In the second week, the speed was increased to 25 m/min, in the third week it was raised to 35 m/min, and in the fourth week it was increased to 45 m/min. Administration was performed in the morning.
The treadmill was equipped with a sensor which was sensitive to the weight of the rat, set to a generated weight force of 60 g/30 sec, and inserted in the rear wall of the time measurement chamber.

[2] = rat, in vivo
animal models = conditions: doses of 1.5-5 mg/day, noncomplexed form; cited from earlier work
venous plasma K^+ [3] = assay: Venous plasma K^+ levels before and after treadmill exercise; type: in vivo, Wistar Kioto male rats; conditions: for K^+ values 30 minutes after the end of the administration: 0.4 mg/kg/day (complex 2 3 mg/kg/day), 6 mg/kg/day (complex 3 50 mg/kg/day); for levels of K^+ of the animals that did not respond to treatment: up to 100 minutes after the end of the effort
Method: as §1, §2

[4] = Undesirable effects: hypotension (pressure measured with flow meter); design: species or system rats; conditions: rat, in vivo
Method: Pressure measurements were made by means of a T206 dual-channel flow meter by Transonic System Inc (Ithaca, NY, USA). In the control animals not subjected to stress or pharmacological treatments, pressure was 91±7 mm Hg (N=56 rats). The pressure values of the animals in our test groups prior to the beginning of pharmacological treatment were between 85 mm Hg and 105 mm Hg. The pressures were measured in the morning, at rest, prior to administration. […] The observed variations remained constant to the end of the treatment. […] The pressure values used to plot the chart refer to the values from day 21 to day 30 of treatment (Chart 4). [formula]

[5] = test system: patients affected by hypokalemias; conditions: guanidine 25 mg/day or more, acetamide 100 and 500 mg/day; cited from earlier work
[6] = animals that responded to treatment
[7] = animals that responded to treatment, same doses as E13

| reduction in average pressure [4] [%] | Compound | K^+ levels of the animals that did not respond to the treatment (venous plasma K^+ [1]) | average duration of the effort on the treadmill (Wistar Kioto male rats) | effort lasting (duration of the repeated effort on a treadmill) (Wistar Kioto male rats) [min] | rats able to sustain the effort on a treadmill already 30 minutes after suspending their exercise (Wistar Kioto male rats) | time after which the remaining rats were able to repeat the effort (Wistar Kioto male rats) [min] | rats that responded to the treatment in terms of both functional and blood parameters (Wistar Kioto male rats; low dose: complex 1 180 µg/kg/day, noncomplexed 20 µg/kg/day) | Average recovery times after effort (Wistar Kioto male rats) | average rate increase (heart rate) [2] [%] | effect on muscular weakness and muscular invalidity (animal models) | values of K^+ 30 minutes after the end of the effort (venous plasma K^+ [3]) [mEq/l] | levels of venous K^+ after 100 minutes (venous plasma K^+ [3]; after the end of the effort) [mEq/l] | values of K^+ after 60 minutes (venous plasma K^+ [3]; after the end of the effort) [mEq/l] | effect on muscular weakness, paralysis attacks and symptoms [5] | K^+ values 30 minutes after the end of the administration (venous plasma K^+ [3]; [6]) [mEq/l] | K^+ values after 60 minutes (venous plasma K^+ [3]; [7]) [mEq/l] | levels of venous K^+ after 100 minutes (venous plasma K^+ [3]; [7]) [mEq/l] | levels of K^+ of the animals that did not respond to treatment (venous plasma K^+ [3]; same doses as E13) |
| --- | --- | --- | --- | --- | --- | --- | --- | --- | --- | --- | --- | --- | --- | --- | --- | --- | --- | --- |
| 8 | Nc1cc(N2CCCCC2)nc(N)[n+]1[O-] [6-[1-piperidinyl]pyrimidine-2,4-diamine-3-oxide] | lower than 3 mEq/l | significantly longer | 7.2 ± 1 | 6 rats out of 8 | 90 | 3 rats out of 8 | reduced significantly | 10±2 | capable of preventing muscular weakness and muscular invalidity | 5.2±2 | 4.5±1 | 4.2±1 |  |  |  |  |  |
| 15 | CC(=O)Nc1nnc(S(N)(=O)=O)s1 [N-[5-sulfamoyl-1,3,4-thiadiazol-2-yl]acetamide] |  | significantly longer | 7 ± 2 | 4 rats out of 8 | 80 |  | reduced significantly | 9±2 |  |  |  |  | useful in reducing symptoms and muscular invalidity caused by exercise | 6.2±2 | 5.8±1 | 5.6±1 | below 3 mEq/l |
| 13 | [±]-N-cyano-N-4-pyridinyl-N-[1,2,2-trimethylpropyl]-guanidine |  | significantly longer | 7.4 ± 1 | 5 rats out of 8 | 70 |  | reduced significantly | 14±2 |  |  |  |  | capable of reducing muscular weakness and the frequency of paralysis attacks | 5.2±2 | 4.8±1 | 4.6±1 | below 3 mEq/l |
